In ChEMBL document CHEMBL3785070, “Synthesis and evaluation of novel opioid ligands with a C-homomorphinan skeleton” (Bioorg Med Chem, 2016):

What was measured:
CHO [1] = test: Selectivity ratio of Ki for human kappa opioid receptor expressed in CHO cell membranes to Ki for human delta opioid receptor expressed in CHO cell membranes; assay type: cell-based
[2] = molecular target: T1, Delta-type opioid receptor (Homo sapiens, UniProt P41143); test: Agonist activity at human delta opioid receptor expressed in CHO cell membranes by [35S]GTPgammaS binding assay relative to SNC80; assay type: functional
[3] = molecular target: T2, Kappa-type opioid receptor (Homo sapiens, UniProt P41145); test: Agonist activity at human kappa opioid receptor expressed in CHO cell membranes by [35S]GTPgammaS binding assay; assay type: functional
[4] = molecular target: T1, Delta-type opioid receptor; test: Displacement of [3H]DPDPE from human delta opioid receptor expressed in CHO cell membranes
Mu-type opioid receptor [5] = molecular target: T3, Mu-type opioid receptor (Homo sapiens, UniProt P35372); test: Displacement of [3H]DAMGO from human mu opioid receptor expressed in CHO cell membranes
[6] = molecular target: T2, Kappa-type opioid receptor; test: Agonist activity at human kappa opioid receptor expressed in CHO cell membranes by [35S]GTPgammaS binding assay relative to U-69,593; assay type: functional
Mu-type opioid receptor [7] = molecular target: T3, Mu-type opioid receptor; test: Agonist activity at human mu opioid receptor expressed in CHO cell membranes by [35S]GTPgammaS binding assay; assay type: functional
CHO [8] = test: Selectivity ratio of Ki for human mu opioid receptor expressed in CHO cell membranes to Ki for human delta opioid receptor expressed in CHO cell membranes; assay type: cell-based
Mu-type opioid receptor [9] = molecular target: T3, Mu-type opioid receptor; test: Agonist activity at human mu opioid receptor expressed in CHO cell membranes at 10 uM by [35S]GTPgammaS binding assay relative to DAMGO; assay type: functional
[10] = molecular target: T1, Delta-type opioid receptor; test: Agonist activity at human delta opioid receptor expressed in CHO cell membranes by [35S]GTPgammaS binding assay; assay type: functional
[11] = molecular target: T2, Kappa-type opioid receptor; test: Displacement of [3H]U-69,593 from human kappa opioid receptor expressed in CHO cell membranes
Mu-type opioid receptor [12] = molecular target: T3, Mu-type opioid receptor; test: Agonist activity at human mu opioid receptor expressed in CHO cell membranes by [35S]GTPgammaS binding assay relative to DAMGO; assay type: functional
[13] = molecular target: T2, Kappa-type opioid receptor; test: Agonist activity at human kappa opioid receptor expressed in CHO cell membranes at 10 uM by [35S]GTPgammaS binding assay relative to U-69,593; assay type: functional

T2 sequence (P41145 whole entry): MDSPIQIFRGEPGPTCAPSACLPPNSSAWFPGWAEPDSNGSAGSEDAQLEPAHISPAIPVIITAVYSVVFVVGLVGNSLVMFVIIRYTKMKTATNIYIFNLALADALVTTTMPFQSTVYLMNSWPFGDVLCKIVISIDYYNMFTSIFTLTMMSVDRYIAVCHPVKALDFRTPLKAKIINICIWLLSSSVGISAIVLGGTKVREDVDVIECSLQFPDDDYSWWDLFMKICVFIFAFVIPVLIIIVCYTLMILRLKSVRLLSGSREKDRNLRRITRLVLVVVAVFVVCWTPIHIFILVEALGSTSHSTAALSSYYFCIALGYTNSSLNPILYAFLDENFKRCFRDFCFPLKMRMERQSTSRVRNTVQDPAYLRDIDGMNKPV
T1 sequence (P41143 whole entry): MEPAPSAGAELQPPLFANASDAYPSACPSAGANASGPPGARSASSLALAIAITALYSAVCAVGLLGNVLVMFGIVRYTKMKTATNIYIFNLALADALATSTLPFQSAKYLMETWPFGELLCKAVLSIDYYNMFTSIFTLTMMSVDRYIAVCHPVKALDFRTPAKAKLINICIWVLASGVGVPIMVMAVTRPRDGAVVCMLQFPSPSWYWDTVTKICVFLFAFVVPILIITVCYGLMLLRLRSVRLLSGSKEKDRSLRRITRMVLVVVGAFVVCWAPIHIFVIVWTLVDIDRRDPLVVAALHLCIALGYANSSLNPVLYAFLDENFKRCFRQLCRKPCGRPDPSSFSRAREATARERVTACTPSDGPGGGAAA
T3 sequence (P35372 whole entry): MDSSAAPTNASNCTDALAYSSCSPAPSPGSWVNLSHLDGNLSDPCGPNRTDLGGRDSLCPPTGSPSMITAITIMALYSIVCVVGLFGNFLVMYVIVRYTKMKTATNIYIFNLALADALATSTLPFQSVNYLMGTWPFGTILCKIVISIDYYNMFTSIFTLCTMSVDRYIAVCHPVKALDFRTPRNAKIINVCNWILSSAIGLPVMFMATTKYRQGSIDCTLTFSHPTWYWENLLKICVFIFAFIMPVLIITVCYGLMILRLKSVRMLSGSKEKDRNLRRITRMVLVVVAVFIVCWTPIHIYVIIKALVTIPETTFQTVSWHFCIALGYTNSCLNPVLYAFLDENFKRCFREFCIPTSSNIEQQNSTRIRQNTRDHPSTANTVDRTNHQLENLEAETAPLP

| SMILES | Ratio Ki (CHO [1]) | Emax [2] [%] | EC50 [3] [nM] | Ki [4] [nM] | Ki (Mu-type opioid receptor [5]) [nM] | Emax [6] [%] | EC50 (Mu-type opioid receptor [7]) [nM] | Ratio Ki (CHO [8]) | Activity (Mu-type opioid receptor [9]) [%] | EC50 [10] [nM] | Ki [11] [nM] | Emax (Mu-type opioid receptor [12]) [%] | Activity [13] [%] |
| --- | --- | --- | --- | --- | --- | --- | --- | --- | --- | --- | --- | --- | --- |
| O=C1C[C@]23CCN(CC4CC4)[C@H](Cc4ccc(O)cc42)[C@]3(O)C/C1=C\c1ccccc1 | 14.2 | 37 | 8.02 | 2.76 | 22 | 20.2 | > 10000 | 8 | 25.6 | 12.5 | 39.1 | – | – |
| Oc1ccc2c(c1)[C@]13CCN(CC4CC4)[C@@H](C2)[C@]1(O)Cc1c([nH]c2ccccc12)C3 | 31.4 | 38.9 | – | – | – | 15.4 | – | 261 | 33 | – | – | – | – |
| Oc1ccc2c(c1)[C@]13CCN(CC4CC4)[C@H](C2)[C@]1(O)CCc1c([nH]c2ccccc12)C3 | 12.5 | 64.8 | – | – | – | 10 | – | 10.8 | – | – | – | 23.5 | – |
| Oc1ccc2c(c1)[C@]13CCN(CC4CC4)C(C2)[C@]1(O)Cc1c([nH]c2ccccc12)C3 | – | – | 3.76 | 0.0945 | 24.7 | – | > 10000 | – | – | 1.4 | 2.97 | – | – |
| Oc1ccc2c(c1)[C@]13CCN(CC4CC4)[C@@H](C2)[C@]1(O)Cc1cc2ccccc2nc1C3 | 10.7 | 82.6 | – | – | – | – | – | 23.8 | 20.8 | – | – | – | 28.1 |
| O=C1CC[C@@]2(O)[C@H]3Cc4ccc(O)cc4[C@@]2(CCN3CC2CC2)C1 | 0.25 | – | – | 2.62 | 0.769 | – | – | 0.29 | – | – | 0.648 | – | – |
| Oc1ccc2c(c1)[C@]13CCN(CC4CC4)C(C2)[C@]1(O)CCc1cc2ccccc2nc1C3 | – | – | 28.4 | 2.3 | 17.6 | – | 11.6 | – | – | 7.32 | 4.3 | – | – |
| O=C1C[C@]23CCN(CC4CC4)[C@H](Cc4ccc(O)cc42)[C@]3(O)C/C1=C/c1ccccc1 | 16.5 | 40.8 | > 10000 | 0.585 | 4.61 | – | 54.6 | 7.9 | – | 3.17 | 9.65 | 31.8 | 30 |
| Oc1ccc2c(c1)[C@]13CCN(CC4CC4)C(C2)[C@]1(O)Cc1cc2ccccc2nc1C3 | – | – | > 10000 | 0.303 | 7.2 | – | > 10000 | – | – | 0.813 | 3.22 | – | – |
| O=C1C[C@]23CCN(CC4CC4)[C@H](Cc4ccc(O)cc42)[C@]3(O)CC/C1=C/c1ccccc1 | 1.8 | 27 | – | – | – | 39.4 | – | 5.3 | – | – | – | 38.6 | – |
| Oc1ccc2c(c1)[C@]13CCN(CC4CC4)[C@H](C2)[C@]1(O)CCc1cc2ccccc2nc1C3 | 1.9 | 104 | – | – | – | 43.9 | – | 7.7 | – | – | – | 31.2 | – |
| O=C1/C(=C/c2ccccc2)C[C@@]2(O)[C@H]3Cc4ccc(O)c5c4[C@@]2(CCN3CC2CC2)[C@H]1O5 [BNTX] | 8 | – | – | 3.53 | 10.5 | – | – | 3 | – | – | 28.3 | – | – |
| Oc1ccc2c(c1)[C@]13CCN(CC4CC4)C(C2)[C@]1(O)CCc1c([nH]c2ccccc12)C3 | – | – | 3.19 | 0.531 | 5.75 | – | 6.23 | – | – | 1.06 | 6.63 | – | – |
| O=C1C[C@]23CCN(CC4CC4)C(Cc4ccc(O)cc42)[C@]3(O)CC/C1=C/c1ccccc1 | – | – | 21.4 | 9.81 | 52.2 | – | 19.2 | – | – | 1.83 | 17.5 | – | – |
| O=C1C[C@]23CCN(CC4CC4)[C@H](Cc4ccc(O)cc42)[C@]3(O)CC/C1=C\c1ccccc1 | 14.1 | – | – | – | – | 18.4 | – | 9 | – | – | – | – | – |
| O=C1C[C@]23CCN(CC4CC4)C(Cc4ccc(O)cc42)[C@]3(O)CC/C1=C\c1ccccc1 | – | – | 14.7 | 0.644 | 5.81 | – | – | – | – | > 10000 | 9.11 | – | – |
| O=C1CCC[C@@]2(O)[C@H]3Cc4ccc(O)cc4[C@@]2(CCN3CC2CC2)C1 | 0.062 | – | – | – | – | – | – | 0.057 | – | – | – | – | – |
| O=C1CCC[C@@]2(O)C3Cc4ccc(O)cc4[C@@]2(CCN3CC2CC2)C1 | – | – | – | 12.1 | 0.692 | – | – | – | – | – | 0.748 | – | – |
